Laboratory results published in ChEMBL document CHEMBL1156044, “Novel pyridine derivatives as potent and selective CB2 cannabinoid receptor agonists” (Bioorg Med Chem Lett, 2009).
Values belong to the compound of their own block, whether it stands above or below them.

Columns and labels:
Cannabinoid receptor 2 [1] = target: T1, Cannabinoid receptor 2 (Homo sapiens, UniProt P34972); experiment: Displacement of [3H][…] from human cloned CB2 receptor after 60 mins by scintillation spectroscopy
Cannabinoid receptor 1 [2] = target: T2, Cannabinoid receptor 1 (Homo sapiens, UniProt P21554); experiment: Inhibition of [3H][…] binding to human cloned CB1 receptor at 10 uM after 120 mins by scintillation spectroscopy
Cannabinoid receptor 2 [3] = target: T3, Cannabinoid receptor 2 (Rattus norvegicus, UniProt Q9QZN9); experiment: Agonist activity at CB2 receptor in rat cerebellar membrane assessed as WIN-55212-2-stimulated [35S]GTPgammaS binding after 6 hrs by scintillation spectrometry; format: functional, cell membranes, Cerebellum
T3 sequence (Q9QZN9 whole entry): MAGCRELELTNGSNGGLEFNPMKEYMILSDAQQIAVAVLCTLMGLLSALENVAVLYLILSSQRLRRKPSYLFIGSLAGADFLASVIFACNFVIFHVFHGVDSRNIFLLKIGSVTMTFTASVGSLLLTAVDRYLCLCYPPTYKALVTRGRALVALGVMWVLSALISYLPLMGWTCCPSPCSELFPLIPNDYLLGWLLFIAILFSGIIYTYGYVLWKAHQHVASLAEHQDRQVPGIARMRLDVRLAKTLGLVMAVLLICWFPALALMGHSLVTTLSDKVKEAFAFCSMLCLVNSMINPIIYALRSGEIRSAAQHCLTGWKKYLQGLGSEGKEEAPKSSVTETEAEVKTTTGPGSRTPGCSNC

[4] = Metabolic stability in rat liver microsomes assessed as compound remaining at […] after 30 mins; format: ADME, Microsome; details: read-out: Stability
[5] = Metabolic stability in human liver microsomes assessed as compound remaining at […] after 30 mins; format: ADME, Microsome; details: read-out: Stability
Homo sapiens = species on record: Homo sapiens; experiment: Selectivity ratio of Ki for human cloned CB1 receptor to Ki for human cloned CB2 receptor
Cannabinoid receptor 1 [6] = target: T2, Cannabinoid receptor 1; experiment: Displacement of [3H][…] from human cloned CB1 receptor after 120 mins by scintillation spectroscopy
Cannabinoid receptor 2 [7] = target: T1, Cannabinoid receptor 2; experiment: Inhibition of [3H][…] binding to human cloned CB2 receptor at 10 uM after 60 mins by scintillation spectroscopy
[8] = Tmax in Beagle dog at 10 mg/kg, po administered as single dose; format: ADME, organism-based, Canis lupus familiaris; parameters: dose 10 mg/kg, route oral; details: in vivo
[9] = AUC (0 to infinity) in Sprague-Dawley rat at 10 mg/kg, po administered as single dose; format: ADME, organism-based; parameters: time infinity, dose 10 mg/kg, route oral; details: plasma
[10] = Systemic plasma clearance in Beagle dog at 1 mg/kg, iv administered as single dose; format: ADME, organism-based, Canis lupus familiaris; parameters: dose 1 mg/kg, route intravenous
Rattus norvegicus = experiment: Antiallodynic activity against neuropathic pain in L5 spinal nerve ligated rat model assessed as reduction of allodynia at 100 mg/kg, po administered 9 days after surgery relative to control; format: functional; parameters: scale not given: the % may be the effect or the level left
Canis familiaris [11] = experiment: Oral bioavailability in Beagle dog at 10 mg/kg, po administered as single dose; format: ADME, organism-based, Canis lupus familiaris; details: in vivo
[12] = AUC (0 to infinity) in Sprague-Dawley rat at 1 mg/kg, iv administered as single dose; format: ADME, organism-based; parameters: time infinity, dose 1 mg/kg, route intravenous; details: plasma
[13] = Volume of distribution at steady state in Sprague-Dawley rat at 1 mg/kg, iv administered as single dose; format: ADME, organism-based; parameters: dose 1 mg/kg, route intravenous; details: in vivo, read-out: Vdss
[14] = Half life in Beagle dog at 10 mg/kg, po administered as single dose; format: ADME, organism-based, Canis lupus familiaris; parameters: dose 10 mg/kg, route oral; details: in vivo
[15] = Volume of distribution at steady state in Beagle dog at 1 mg/kg, iv administered as single dose; format: ADME, organism-based, Canis lupus familiaris; parameters: dose 1 mg/kg, route intravenous; details: in vivo, read-out: Vdss
[16] = Tmax in Sprague-Dawley rat at 10 mg/kg, po administered as single dose; format: ADME, organism-based; parameters: dose 10 mg/kg, route oral; details: in vivo
Canis familiaris [17] = experiment: Area under curve (0 to infinity) in Beagle dog at 1 mg/kg, iv administered as single dose; format: ADME, organism-based, Canis lupus familiaris; parameters: time infinity, dose 1 mg/kg, route intravenous; details: in vivo
[18] = Half life in Sprague-Dawley rat at 1 mg/kg, iv administered as single dose; format: ADME, organism-based; parameters: dose 1 mg/kg, route intravenous; details: in vivo
[19] = Half life in Sprague-Dawley rat at 10 mg/kg, po administered as single dose; format: ADME, organism-based; parameters: dose 10 mg/kg, route oral; details: in vivo
[20] = Cmax in Sprague-Dawley rat at 10 mg/kg, po administered as single dose; format: ADME, organism-based; parameters: dose 10 mg/kg, route oral; details: in vivo
Canis familiaris [21] = experiment: AUC (0 to infinity) in Beagle dog at 10 mg/kg, po administered as single dose; format: ADME, organism-based, Canis lupus familiaris, Plasma; parameters: time infinity, dose 10 mg/kg, route oral; details: in vivo
[22] = Oral bioavailability in Sprague-Dawley rat at 10 mg/kg administered as single dose; format: ADME, organism-based; details: in vivo
[23] = Cmax in Beagle dog at 10 mg/kg, po administered as single dose; format: ADME, organism-based, Canis lupus familiaris; parameters: dose 10 mg/kg, route oral; details: in vivo
[24] = Systemic plasma clearance in Sprague-Dawley rat at 1 mg/kg, iv administered as single dose; format: ADME, organism-based; parameters: dose 1 mg/kg, route intravenous
[25] = Half life in Beagle dog at 1 mg/kg, iv administered as single dose; format: ADME, organism-based, Canis lupus familiaris; parameters: dose 1 mg/kg, route intravenous; details: in vivo

T2 sequence (P21554 whole entry): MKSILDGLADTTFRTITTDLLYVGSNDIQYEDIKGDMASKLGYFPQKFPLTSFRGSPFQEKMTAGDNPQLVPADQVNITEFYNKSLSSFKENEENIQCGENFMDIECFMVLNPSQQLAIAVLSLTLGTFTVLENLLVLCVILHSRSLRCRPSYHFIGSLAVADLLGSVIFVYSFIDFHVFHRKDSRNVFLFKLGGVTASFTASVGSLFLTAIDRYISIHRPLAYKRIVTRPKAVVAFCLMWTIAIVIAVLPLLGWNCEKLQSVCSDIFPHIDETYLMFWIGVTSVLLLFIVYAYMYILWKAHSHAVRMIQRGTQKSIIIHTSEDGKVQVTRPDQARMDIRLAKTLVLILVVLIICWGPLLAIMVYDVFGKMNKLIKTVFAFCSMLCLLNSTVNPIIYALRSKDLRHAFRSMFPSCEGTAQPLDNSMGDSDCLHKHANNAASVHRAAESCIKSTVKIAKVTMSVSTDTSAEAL
T1 sequence (P34972 whole entry): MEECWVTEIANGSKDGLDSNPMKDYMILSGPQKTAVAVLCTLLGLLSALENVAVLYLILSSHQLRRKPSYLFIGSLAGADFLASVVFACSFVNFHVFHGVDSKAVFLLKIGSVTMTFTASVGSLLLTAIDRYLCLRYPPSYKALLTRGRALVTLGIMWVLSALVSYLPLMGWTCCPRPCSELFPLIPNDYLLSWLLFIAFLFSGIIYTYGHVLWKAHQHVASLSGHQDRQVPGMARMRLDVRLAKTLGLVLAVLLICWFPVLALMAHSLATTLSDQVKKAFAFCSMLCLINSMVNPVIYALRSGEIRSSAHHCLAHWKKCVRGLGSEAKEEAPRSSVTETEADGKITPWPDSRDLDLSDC

SMILES: Cc1cnc(NC(=O)C(C)(C)C)cc1CN1CCOCC1
Ki (Cannabinoid receptor 2 [1]): 81 nM
inhibition (Cannabinoid receptor 1 [2]): 37%
EC50 (Cannabinoid receptor 2 [3]): 70 nM

SMILES: CCC(C)(C)C(=O)Nc1cc(CN2CCOCC2)c(C#N)cn1
Ki (Cannabinoid receptor 2 [1]): 100 nM
inhibition (Cannabinoid receptor 1 [2]): 11%
EC50 (Cannabinoid receptor 2 [3]): 200 nM

SMILES: CCC1(C(=O)Nc2cc(CN3CCOCC3)c(C)cn2)CCC1
Ki (Cannabinoid receptor 2 [1]): 45 nM
remaining at 0.5 h [4]: 48%
inhibition (Cannabinoid receptor 1 [2]): 13%
remaining at 0.5 h [5]: 51%
EC50 (Cannabinoid receptor 2 [3]): 140 nM

SMILES: Cc1cnc(NC(=O)C2(C)CCCCC2C)cc1CN1CCOCC1 (centres undefined)
Ki (Cannabinoid receptor 2 [1]): 1.9 nM
remaining at 0.5 h [4]: 0%
remaining at 0.5 h [5]: 1%
Ratio Ki (Homo sapiens): 1300
EC50 (Cannabinoid receptor 2 [3]): 2.8 nM
Ki (Cannabinoid receptor 1 [6]): 2500 nM

inhibition (Cannabinoid receptor 1 [2]): 4%
inhibition (Cannabinoid receptor 2 [7]): 46%
SMILES: CCC(C)(C)C(=O)Nc1cnc(C)c(CN2CCOCC2)c1

SMILES: CCC(C)(C)C(=O)Nc1cc(CN2CCOCC2)cc(C)n1
Ki (Cannabinoid receptor 2 [1]): 67 nM
inhibition (Cannabinoid receptor 1 [2]): 0%
EC50 (Cannabinoid receptor 2 [3]): 260 nM

SMILES: CCC(C)(C)C(=O)Nc1cc(CN2CCOCC2)c(C)cn1
Tmax [8]: 0.5 h
AUC(0-inf) [9]: 893 ng·h/mL
clearance [10]: 15 mL/min/kg
Activity (Rattus norvegicus): 271%
Ki (Cannabinoid receptor 2 [1]): 24 nM
F (Canis familiaris [11]): 29%
AUC(0-inf) [12]: 158 ng·h/mL
Vd [13]: 3.5 L/kg
remaining at 0.5 h [4]: 43%
half-life [14]: 1.1 h
Vd [15]: 0.6 L/kg
remaining at 0.5 h [5]: 64%
Ratio Ki (Homo sapiens): 160
Tmax [16]: 2 h
AUC (Canis familiaris [17]): 1127 ng·h/mL
half-life [18]: 0.5 h
half-life [19]: 2.1 h
Cmax [20]: 185 ng/mL
AUC (Canis familiaris [21]): 977 ng·h/mL
EC50 (Cannabinoid receptor 2 [3]): 41 nM
Ki (Cannabinoid receptor 1 [6]): 3800 nM
bioavailability [22]: 57%
Cmax [23]: 535 ng/mL
clearance [24]: 96.7 mL/min/kg
half-life [25]: 1.4 h

SMILES: CCC1(C(=O)Nc2cc(CN3CCOCC3)c(C)cn2)CCCC1
Ki (Cannabinoid receptor 2 [1]): 13 nM
remaining at 0.5 h [5]: 12%
Ratio Ki (Homo sapiens): 85
EC50 (Cannabinoid receptor 2 [3]): 13 nM
Ki (Cannabinoid receptor 1 [6]): 1100 nM

SMILES: CCC(C)(C)C(=O)Nc1ccc(C)c(CN2CCOCC2)c1
remaining at 0.5 h [4]: 2.2%
inhibition (Cannabinoid receptor 1 [2]): 4%

SMILES: CCC1(C(=O)Nc2cc(CN3CCOCC3)c(C)cn2)CCCCC1
Ki (Cannabinoid receptor 2 [1]): 7 nM
remaining at 0.5 h [4]: 0%
inhibition (Cannabinoid receptor 1 [2]): 36%
remaining at 0.5 h [5]: 0%
EC50 (Cannabinoid receptor 2 [3]): 8.8 nM

SMILES: CCC(C)(C)C(=O)Nc1cc(CN2CCOCC2)c(C)cc1C
remaining at 0.5 h [4]: 68%
inhibition (Cannabinoid receptor 1 [2]): 18%

SMILES: CCC1(C(=O)Nc2cc(CN3CCOCC3)c(C)cn2)CC1
Ki (Cannabinoid receptor 2 [1]): 63 nM
inhibition (Cannabinoid receptor 1 [2]): 25%
EC50 (Cannabinoid receptor 2 [3]): 62 nM

SMILES: CCc1cnc(NC(=O)C(C)(C)CC)cc1CN1CCOCC1
Ki (Cannabinoid receptor 2 [1]): 7.9 nM
remaining at 0.5 h [4]: 29%
remaining at 0.5 h [5]: 34%
Ratio Ki (Homo sapiens): 550
EC50 (Cannabinoid receptor 2 [3]): 9.6 nM
Ki (Cannabinoid receptor 1 [6]): 4300 nM

SMILES: CCCC(C)(C)C(=O)Nc1cc(CN2CCOCC2)c(C)cn1
Ki (Cannabinoid receptor 2 [1]): 5.3 nM
remaining at 0.5 h [5]: 15%
Ratio Ki (Homo sapiens): 330
EC50 (Cannabinoid receptor 2 [3]): 4.1 nM
Ki (Cannabinoid receptor 1 [6]): 1800 nM

SMILES: CCC(C)(C)C(=O)Nc1ccc(C)c(CN2CCOCC2)n1
Ki (Cannabinoid receptor 2 [1]): 1800 nM
inhibition (Cannabinoid receptor 1 [2]): 28%

SMILES: CCC(C)(C)C(=O)Nc1cc(CN2CCOCC2)c(N)cn1
Ki (Cannabinoid receptor 2 [1]): 870 nM
inhibition (Cannabinoid receptor 1 [2]): 10%
